Article PMC8655237 (Journal of Advanced Research, 2021)
Like-named read-outs stand apart in the source and are kept apart here.

What was measured:
[1] = tested on: FaDu; experiment: MTT antiproliferative assay; format: cell-based; settings: Homo sapiens, 24 h, read-out: IC50 (MTT)
[2] = tested on: PC-3; experiment: NRU antiproliferative assay; format: cell-based; settings: Homo sapiens, PC-3, 24 h, read-out: IC50 (NRU)
[3] = tested on: A431; experiment: NRU antiproliferative assay; format: cell-based; settings: Homo sapiens, A-431, 24 h, read-out: IC50 (NRU)
[4] = tested on: MDA-MB-231; experiment: NRU antiproliferative assay; format: cell-based; settings: Homo sapiens, MDA-MB-231, 24 h, read-out: IC50 (NRU)
[5] = tested on: A549; experiment: NRU antiproliferative assay; format: cell-based; settings: Homo sapiens, A549, 24 h, read-out: IC50 (NRU)
[6] = tested on: PC-3; experiment: SRB antiproliferative assay; format: cell-based; settings: Homo sapiens, PC-3, 24 h, read-out: IC50 (SRB)
[7] = biological target: T1, COX-2 (Homo sapiens, UniProt P35354); experiment: COX-2 assay, cell-free; format: biochemical
T1 sequence (P35354 18-604): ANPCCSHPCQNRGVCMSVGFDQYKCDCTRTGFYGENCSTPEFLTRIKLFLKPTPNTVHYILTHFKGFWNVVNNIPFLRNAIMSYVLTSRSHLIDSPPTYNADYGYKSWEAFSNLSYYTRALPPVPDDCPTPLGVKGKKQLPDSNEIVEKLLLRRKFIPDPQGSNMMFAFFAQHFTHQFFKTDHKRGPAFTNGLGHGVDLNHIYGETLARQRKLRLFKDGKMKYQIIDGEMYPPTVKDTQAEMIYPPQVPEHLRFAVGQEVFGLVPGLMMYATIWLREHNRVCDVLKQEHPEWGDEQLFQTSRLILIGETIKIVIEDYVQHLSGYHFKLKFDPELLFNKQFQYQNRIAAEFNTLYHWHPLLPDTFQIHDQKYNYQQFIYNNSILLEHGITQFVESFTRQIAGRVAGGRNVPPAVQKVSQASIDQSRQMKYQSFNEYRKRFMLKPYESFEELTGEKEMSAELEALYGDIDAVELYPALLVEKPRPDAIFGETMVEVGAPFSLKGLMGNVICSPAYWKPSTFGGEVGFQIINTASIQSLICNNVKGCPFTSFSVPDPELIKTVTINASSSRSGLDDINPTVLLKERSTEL

[8] = biological target: T2, Ornithine decarboxylase (ODC) (Homo sapiens, UniProt P11926); experiment: ODC assay, cell-based; settings: for IC50: IC50 ODC, cell based
T2 sequence (P11926 1-461): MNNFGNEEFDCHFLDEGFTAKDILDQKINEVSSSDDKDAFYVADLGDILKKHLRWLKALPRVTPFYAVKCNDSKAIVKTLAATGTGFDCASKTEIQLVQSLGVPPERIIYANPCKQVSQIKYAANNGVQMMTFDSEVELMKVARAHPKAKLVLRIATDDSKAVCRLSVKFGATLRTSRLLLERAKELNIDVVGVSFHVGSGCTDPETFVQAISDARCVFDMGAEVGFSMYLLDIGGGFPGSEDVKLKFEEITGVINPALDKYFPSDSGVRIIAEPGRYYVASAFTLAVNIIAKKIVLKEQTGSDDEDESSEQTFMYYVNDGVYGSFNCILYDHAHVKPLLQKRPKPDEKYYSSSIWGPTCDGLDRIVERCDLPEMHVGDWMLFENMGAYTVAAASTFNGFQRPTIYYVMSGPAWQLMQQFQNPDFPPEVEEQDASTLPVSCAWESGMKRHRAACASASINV

[9] = tested on: hyaluronidase (HYAL); experiment: Hyaluronidase assay, cell-free; format: biochemical; settings: cell-free system
[10] = tested on: hyaluronidase (HYAL); experiment: Hyaluronidase assay, cell-based; parameters: species or system human
[11] = tested on: ODC mRNA; experiment: Real-time qPCR expression analysis; format: cell-based, human; settings: GAPDH internal control
[12] = tested on: CAT D mRNA; experiment: Real-time qPCR expression analysis; format: cell-based, human; settings: GAPDH internal control
[13] = tested on: FaDu; experiment: Cell cycle analysis by flow cytometry; format: cell-based, human; settings: 24 h
[14] = tested on: K562; experiment: Cell cycle analysis by flow cytometry; format: cell-based, human; settings: K562, 24 h
[15] = tested on: A549; experiment: Cell cycle analysis by flow cytometry; format: cell-based, human; settings: A549, 24 h
[16] = biological target: tubulin protein (Sus scrofa, UniProt P02550+P02554); experiment: Tubulin polymerization assay; format: biochemical; settings: 100 μM
[17] = tested on: A431 cells; experiment: DCFH-DA ROS assay; format: cell-based, human; settings: A431, highest concentration, 24 h, spectrofluorometer
[18] = tested on: AKT; experiment: AKT quantification by ELISA in A431 cells; format: cell-based, human; settings: A431, 100 µM, 24 h
[19] = tested on: Ehrlich Ascites Carcinoma (EAC); experiment: Ehrlich ascites carcinoma; format: in vivo, Swiss albino mice; settings: for reduction of EAC tumor cells (tumor growth inhibition): day 1-9
[20] = tested on: hyaluronidase; experiment: Hyaluronidase activity in EAC cells of treated mice; format: in vivo; settings: 75 mg/kg bw, i.p.
[21] = tested on: panel of organ-specific human cancer and normal cell lines; experiment: Antiproliferative activity over the cell line panel; format: cell-based; settings: read-out: IC50 range in all the tested assay systems
[22] = tested on: human erythrocytes; experiment: Ex vivo osmotic fragility test; settings: 100 μM
[23] = Acute oral toxicity; format: in vivo, Swiss albino mice; settings: up to 1000 mg/kg body weight
[24] = biological target: T3, Cathepsin D (CATD) (Homo sapiens, UniProt P07339); experiment: Cathepsin D assay, cell-free
[25] = biological target: T3, Cathepsin D (CATD); experiment: Cathepsin D assay, cell-based; settings: IC50 CAT D
[26] = MDA-MB-231, with respect to control

T3 sequence (P07339 65-412): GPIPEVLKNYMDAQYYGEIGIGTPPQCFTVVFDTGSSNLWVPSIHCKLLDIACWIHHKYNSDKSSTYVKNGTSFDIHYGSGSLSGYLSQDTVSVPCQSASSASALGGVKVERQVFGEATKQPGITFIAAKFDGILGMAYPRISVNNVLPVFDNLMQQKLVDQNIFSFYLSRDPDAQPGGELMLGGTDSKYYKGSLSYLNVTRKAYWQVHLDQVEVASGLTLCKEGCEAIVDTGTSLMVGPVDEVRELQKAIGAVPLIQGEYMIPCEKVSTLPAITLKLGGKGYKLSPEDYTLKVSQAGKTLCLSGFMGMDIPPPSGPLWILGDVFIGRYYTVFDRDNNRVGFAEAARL
tubulin protein, sequence (P02550 whole entry): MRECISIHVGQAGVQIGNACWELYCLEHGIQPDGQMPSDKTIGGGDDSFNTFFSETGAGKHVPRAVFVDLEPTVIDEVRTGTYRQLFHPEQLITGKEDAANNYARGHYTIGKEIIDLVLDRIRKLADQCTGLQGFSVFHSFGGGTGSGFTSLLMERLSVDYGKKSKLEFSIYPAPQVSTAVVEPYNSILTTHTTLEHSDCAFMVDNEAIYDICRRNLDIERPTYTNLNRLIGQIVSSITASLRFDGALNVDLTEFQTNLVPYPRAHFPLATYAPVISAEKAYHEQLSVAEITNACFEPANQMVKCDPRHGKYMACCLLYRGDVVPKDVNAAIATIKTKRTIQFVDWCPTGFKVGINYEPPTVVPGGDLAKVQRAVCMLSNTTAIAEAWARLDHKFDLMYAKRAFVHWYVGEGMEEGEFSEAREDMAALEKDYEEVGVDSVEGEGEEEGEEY
tubulin protein, sequence (P02554 whole entry): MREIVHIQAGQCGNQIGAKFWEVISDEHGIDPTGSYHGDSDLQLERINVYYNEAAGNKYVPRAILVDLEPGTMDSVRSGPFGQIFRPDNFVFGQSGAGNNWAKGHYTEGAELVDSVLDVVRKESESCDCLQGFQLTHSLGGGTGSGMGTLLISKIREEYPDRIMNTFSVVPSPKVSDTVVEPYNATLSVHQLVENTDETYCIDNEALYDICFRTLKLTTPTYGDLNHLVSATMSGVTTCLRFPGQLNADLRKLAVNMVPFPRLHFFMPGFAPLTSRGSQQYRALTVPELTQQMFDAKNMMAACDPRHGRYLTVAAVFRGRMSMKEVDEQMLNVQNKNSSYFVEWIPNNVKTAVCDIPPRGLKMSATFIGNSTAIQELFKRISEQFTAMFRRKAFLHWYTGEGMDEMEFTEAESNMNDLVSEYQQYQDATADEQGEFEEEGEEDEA

For `CC(C)[C@@H]1CC[C@@H](C)C[C@@H]1O` [neomenthol, (+)-Neomenthol], which IC50 [1] is on record?
Its IC50 is 99.31 ± 0.59 µM.

What about the IC50 [2] of the same compound?
Its IC50 is 84.6 ± 1.81 µM.

What about the IC50 [3] of the same compound?
Its IC50 is 18.5 ± 3.66 µM.

And the IC50 [4]?
Its IC50 is 34.7 ± 9.96 µM.

And the IC50 [5]?
The IC50 was 48.1 ± 4.97 µM.

And the IC50 [6]?
The IC50 was 16.4 ± 3.87 µM.

And the IC50 [7]?
The IC50 was 81.01 ± 0.59 µM.

And the “percent inhibition of ODC” value ([8]; A549, PC-3, A431, and FaDu cell lines)?
Its value is “below 50%”.

What about the IC50 ([8]; K562) of the same compound?
Its IC50 is 29.6 ± 2.54 µM.

What about the IC50 ([8]; MDA-MB-231) of the same compound?
The IC50 was 57.2 ± 2.84 µM.

What about the “inhibition of hyaluronidase enzyme activity” value [9] of the same compound?
Its value is 24.9 ± 4.31%.

And the IC50 ([10]; read-out: IC50 HYAL, A431)?
The IC50 was 12.81 ± 0.01 µM.

And the IC50 ([10]; read-out: IC50 HYAL, A549)?
Its IC50 is 36.8 ± 5.65 µM.

And the “ODC mRNA expression level” value ([11]; A431, with respect to control)?
The value was 1.15 fold change.

What about the “ODC mRNA expression level” value ([11]; A549, with respect to control) of the same compound?
Its value is 1.18 fold change.

And the “ODC mRNA expression level” value ([11]; FaDu, with respect to control)?
Its value is 1.08 fold change.

And the “ODC mRNA expression level” value [11, 26]?
The value was 1.05 fold change.

And the “ODC mRNA expression level” value ([11]; PC-3, with respect to control)?
The value was 1.22 fold change.

And the “CAT D mRNA expression level” value ([12]; A431, with respect to control)?
Its value is 1.19 fold change.

What about the “CAT D mRNA expression level” value ([12]; A549, with respect to control) of the same compound?
The value was 1.37 fold change.

What about the “CAT D mRNA expression level” value ([12]; FaDu, with respect to control) of the same compound?
Its value is 1.31 fold change.

What about the “CAT D mRNA expression level” value ([12]; K562, with respect to control) of the same compound?
The value was 1.24 fold change.

What about the “CAT D mRNA expression level” value [12, 26] of the same compound?
Its value is 1.15 fold change.

And the “CAT D mRNA expression level” value ([12]; PC-3, with respect to control)?
The value was 1.35 fold change.

And the “cell cycle phase arrested” value [13]?
The value was “G2/M phase”.

And the “cell cycle phase arrested” value [14]?
Its value is “arrest of the G0/G1 phase”.

And the “cell cycle phase arrested” value [15]?
The value was “G2/M phase”.

What about the “effect on tubulin polymerization” value [16] of the same compound?
Its value is “inhibit the polymerization of α and β tubulin”.

What about the “percent increase in the ROS level” value [17] of the same compound?
The value was 20.45 ± 0.35%.

And the “AKT level (ng/mg of protein)” value [18]?
The value was 0.125 ± 0.004 ng/mg.

What about the “reduction of EAC tumor cells (tumor growth inhibition)” value ([19]; 50 mg/kg bw i.p.) of the same compound?
The value was 23.98%.

And the “survival rate higher compared to EAC harbored mice” value ([19]; 75 mg/kg body weight)?
The value was 17%.

What about the “survival of EAC harbored mice (survived till)” value ([19]; 75 mg/kg body weight, untreated EAC mice died within 24 days) of the same compound?
The value was 27 days.

And the “reduction of EAC tumor cells (tumor growth inhibition)” value ([19]; 75 mg/kg bw i.p.)?
Its value is 58.84%.

And the “inhibition (modulation) of hyaluronidase activity in EAC cells of mice” value [20]?
The value was “up to 10%”.

What about the IC50 [21] of the same compound?
Its IC50 is 16.4 to 99.3 µM.

And the “toxicity to erythrocytes (osmotic fragility)” value [22]?
The value was “non-toxic to erythrocytes”.

And the “acute oral toxicity outcome” value [23]?
Its value is “safe and non-toxic”.

What about the IC50 [24] of the same compound?
Its IC50 is 30.4 ± 6.44 µM.

And the IC50 ([25]; A549)?
The IC50 was 62 ± 2.08 µM.

What about the IC50 ([25]; FaDu) of the same compound?
The IC50 was 74.62 ± 0.21 µM.

And the IC50 ([25]; K562)?
The IC50 was 57.5 ± 14 µM.
